Reference: patent US20200248178A1, “COMBINATION THERAPIES FOR TREATING MUSCULAR DYSTROPHY” (Sarepta Therapeutics, Inc., priority 2017, published 2020)
Several values for one entry are separate records, joined by “and”; a condition that tells them apart may be missing. Equal values may be shown once.

How the values were obtained:
[1] = system: NF-κB pathways; details: phase I, adults; cited from earlier work
[2] = system: NF-κB; details: cited from earlier work
[3] = system: Mdx mice; details: cited from earlier work
[4] = system: cNF-κB; details: cited from earlier work
[5] = system: dystrophin; assay: Study 3 (Study 301): dystrophin in muscle biopsy by Western blot; format: in vivo, human
Description: Dystrophin levels in muscle tissue were assessed by Western blot. In the 12 patients with evaluable results, the pre-treatment dystrophin level was 0.16%±0.12% (mean±standard deviation) of the dystrophin level in a healthy subject and 0.44%±0.43% after 48 weeks of treatment with EXONDYS 51® (p<0.05). The median increase after 48 weeks was 0.1%.

[6] = system: dystrophin; assay: Study 201/202 Week 180 muscle biopsy, Western blot; format: in vivo, human
Description: (§1) All 12 patients who participated in Study 1 continued treatment with open-label EXONDYS 51® weekly for an additional 4 years in Study 2. The 4 patients who had been randomized to placebo were re-randomized 1:1 to EXONDYS 51® 30 or 50 mg/kg/week such that there were 6 patients on each dose. Patients who participated in Study 2 were compared to an external control group. The primary clinical efficacy outcome measure was the 6MWT. […] The average dystrophin protein level after 180 weeks of treatment with EXONDYS 51® was 0.93% of the dystrophin level in healthy subjects.
(§2) In order to obtain a comprehensive view of dystrophin expression, biopsies from Study 201/202 were analyzed by three complementary assays. First, Western blot was used to quantitate dystrophin following extraction of protein from muscle tissue. Second, immunohistochemical (IHC) images were evaluated by trained, blinded pathologists to assess the percent dystrophin positive fibers (PDPF), providing information on sarcolemma localization and distribution of dystrophin in muscle fibers. Finally, the IHC images were also assessed by a computer algorithm to measure fiber intensity and to quantify dystrophin at the sarcolemmal membrane.

[7] = system: dystrophin; assay: Study 201/202 Week 180 biopsy, IHC percent dystrophin positive fibers (PDPF); format: in vivo, human
Description: as §2

[8] = system: dystrophin; assay: Study 201/202 Week 180 biopsy, IHC fiber intensity; format: in vivo, human
Description: as §2

[9] = system: DMD patients amenable to exon 51 skipping; assay: 6 Minute Walk Test, Study 201/202 vs external control; format: in vivo, human
Description: In Study 1, patients were randomized to receive weekly infusions of EXONDYS 51° (30 mg/kg, n=4); EXONDYS 51° (50 mg/kg, n=4), or placebo (n=4) for 24 weeks. The primary endpoint was dystrophin production; a clinical outcome measure, the 6-minute walk test (6MWT), was also assessed. The 6MWT measures the distance that a patient can walk on a flat, hard surface in a period of 6 minutes.
as §1
The pre-specified criteria for identification of patients for the external control groups were based on the inclusion criteria for Study 201/202. These included baseline age, steroid use and specific DMD mutation. Each of these represent key prognostic factors that enable identification of a relatively homogenous population that would be expected to decline on the 6MWT.
A group with DMD mutations amenable to exon 51 skipping therapy (N=13, primary external control group).
The 6MWT assessments in both Study 201/202 and the external registries were conducted in a standardized manner according to international guidelines.

[10] = system: DMD patients amenable to exon 51 skipping; assay: Loss of ambulation, Study 201/202 vs external controls; format: in vivo, human
From the text: Ambulatory compromise and irreversible loss of ambulation (LOA) are hallmarks of the progressive muscle degeneration characteristic of DMD. It is a reliable overall indicator of the severity of disease progression and strongly correlates with functional measures such as the 6MWT; it is also less influenced by motivational factors. Furthermore, LOA predicts other major disease milestones such as the need for ventilatory support and survival (Bello 2016). Once confined to a wheelchair, other symptoms tend to follow in rapid succession. Consistent with results of the 6MWT, fewer eteplirsen treated boys lost ambulation (2/12) compared to the external control patients who were amenable to exon 51 skipping therapy (10/13) over the four year time period.
Kaplan-Meier analyses for loss of ambulation were conducted, accounting for missing data. At year three the estimated probability for loss of ambulation was 17% for eteplirsen treated boys compared to 46% of boys from both external control cohorts. At year four, Kaplan-Meier estimates of loss of ambulation was 17% for eteplirsen treated boys compared to 85% for the external control boys amenable to exon 51 skipping. This difference in loss of ambulation over the 4-year period was statistically significant, with a nominal p-value of 0.011 (FIG. 8).

[11] = system: DMD patients; assay: North Star Ambulatory Assessment (NSAA); format: in vivo, human; details: end of year three; vs Italian Telethon group
From the text: The NSAA is a clinician-reported outcome instrument specifically designed to measure function in ambulatory patients with DMD. The 17 items are each scored on a 0-2 ordinal scale and include assessments of abilities such as rising from the floor, climbing and descending a step, 10 meter walk/run and lifting the head. Over the first year, both the eteplirsen treated boys and the Italian Telethon group declined at a similar rate. However, following year one, as was observed on 6MWT, the decline in function for the eteplirsen group slowed and by the end of year three there was a 2.4 point greater decline for the untreated boys. This difference is of clinical relevance and may represent loss or impairment of up to 2 activities of daily living.

[12] = system: DMD patients; assay: Ability to rise from supine without external support; format: in vivo, human; details: by year three; external control 8%
From the text: The ability to rise from supine is a critical activity for DMD patients, is one of the early abilities to be lost and may be predictive of loss of ambulation. In an analysis comparing the ability to rise from a supine position (without external support), 92% of eteplirsen treated vs 85% external control patients had the ability to rise without external support at baseline. By year three, 55% of eteplirsen vs 8% of external control patients had the ability to rise without external support.

[13] = system: DMD patients; assay: Pulmonary function tests (FVC % predicted); format: in vivo, human; details: literature >5% annual decline
From the text: In some embodiments, MEP may decline before changes in other pulmonary function tests, including MIP and FVC. In certain embodiments, MEP may be an early indicator of respiratory dysfunction. In certain embodiments, FVC may be used to measure the total volume of air expelled during forced exhalation after maximum inspiration. In patients with DMD, FVC increases concomitantly with physical growth until the early teens. However, as growth slows or is stunted by disease progression, and muscle weakness progresses, the vital capacity enters a descending phase and declines at an average rate of about 8 to 8.5 percent per year after 10 to 12 years of age. In certain embodiments, MIP percent predicted (MIP adjusted for weight), MEP percent predicted (MEP adjusted for age) and FVC percent predicted (FVC adjusted for age and height) are supportive analyses.
Respiratory function in DMD is progressively impaired over time as the dystrophic process affects respiratory muscles, including the diaphragm, leading to significant morbidity and mortality. Eteplirsen treated boys had slower deterioration of respiratory muscle function as measured by FVC % predicted (decrease of ˜2.5% per year) when compared to data from the published literature (>5% annual decline). […]

[14] = system: immune response; design: species or system juvenile rats; details: rat, in vivo
From the text: Phosphorothioates are known to cause a number of other target organ toxicities in animals, including complement activation and pro-inflammatory effects, coagulopathies, thrombocytopenia, vascular injury, and hepatic Kuppfer cell basophilia (Levin 1998; Monteith 1999; Levin 2001; Henry 2008; Frazier 2014; Engelhardt 2015; Frazier 2015).

[15] = system: exon 51 of dystrophin pre-mRNA; details: normal human skeletal muscle cells or DMD patient muscle cells; cited from earlier work
[16] = system: exon 51 of dystrophin pre-mRNA; details: hDMD mouse model; cited from earlier work
[17] = system: patient cells; details: cited from earlier work
[18] = system: mouse model of DMD; details: cited from earlier work

Compound: CC/C=C\C/C=C\C/C=C\C/C=C\C/C=C\C/C=C\CCC(=O)NCCNC(=O)c1ccccc1O [CAT-1004, N-(2-[(4Z,7Z,10Z,13Z,16Z,19Z)-docosa-4,7,10,13,16,19-hexaenamido]ethyl)-2-hydroxybenzamide]
- safety and tolerability [1]: safe, well tolerated

Compound: CC/C=C\C/C=C\C/C=C\C/C=C\C/C=C\CCCC(=O)NCCNC(=O)c1ccccc1O [CAT-1041]
- phenotype ([2]; GRMD dog, long-term treatment): improves the phenotype
- diaphragm function ([2]; dog DMD model): improved diaphragm function
- exercise endurance ([3]; mdx mice): increased exercise endurance
- inflammation and fibrosis ([3]; mdx mice): reduced inflammation and fibrosis
- muscle function ([3]; mdx mice): preserves muscle function
- muscle fibrosis ([3]; mdx mice, long-term studies): reduces muscle fibrosis
- skeletal muscle weight ([3]; mdx mice, long-term studies): increases skeletal muscle weight
- phenotype ([3]; mdx mouse, long-term treatment): improves the phenotype
- diaphragm function ([3]; mouse DMD model): improved diaphragm function
- cNF-κB activation in vitro [4]: inhibit cNF-κB activation in vitro

Compound: Eteplirsen
- Week 48 % normal dystrophin ([5]; 30 mg/kg weekly, week 48, individual patients 1-12 and mean, listed as EXONDYS 51, 30 mg/kg): 0.10 % normal dystrophin and 1.02 % normal dystrophin and 0.30 % normal dystrophin and 0.42 % normal dystrophin and 1.57 % normal dystrophin and 0.12 % normal dystrophin and 0.47 % normal dystrophin and 0.09 % normal dystrophin and 0.21 % normal dystrophin and 0.26 % normal dystrophin and 0.36 % normal dystrophin and 0.37 % normal dystrophin
- median increase in dystrophin after 48 weeks ([5]; 12 evaluable patients): 0.1%
- dystrophin level after 48 weeks of treatment (mean±standard deviation) ([5]; 12 evaluable patients, 30 mg/kg weekly, p<0.05 vs pre-treatment): 0.44%±0.43%
- Change from Baseline % normal dystrophin ([5]; week 48 vs pre-treatment baseline, individual patients 1-12 and mean, listed as EXONDYS 51): 0.06 % normal dystrophin and 0.85 % normal dystrophin and −0.07 % normal dystrophin and 0.25 % normal dystrophin and 1.33 % normal dystrophin and 0.01 % normal dystrophin (2×) and 0.43 % normal dystrophin and 0.07 % normal dystrophin and 0.03 % normal dystrophin and 0.13 % normal dystrophin and 0.31 % normal dystrophin
- Difference of Means (Treated vs. Untreated) ([6]; Western Blot, Week 180): +0.85%
- Treated (Mean % Dystrophin of Normal) ([6]; Western Blot, Week 180): 0.93%
- Fold Increase in de novo dystrophin ([6]; Western Blot, Week 180, relative to untreated controls): 11.6 fold
- average dystrophin protein level after 180 weeks of treatment ([6]; Western blot, eleven patients, 30 or 50 mg/kg/week): 0.93 % of the dystrophin level in healthy subjects
- Difference of Means (Treated vs. Untreated) [7]: +16.27%
- Treated (Mean % Dystrophin of Normal) [7]: 17.39%
- Fold Increase ([7]; treated vs untreated): 15.5 fold
- Difference of Means (Treated vs. Untreated) [8]: +13.20%
- Treated (Mean % Dystrophin of Normal) [8]: 22.61%
- Fold Increase ([8]; treated vs untreated): 2.4 fold
- 6MWT treatment benefit in sensitivity analyses ([9]; four year results, covariates age, 6MWT, steroid use): > 100 meter
- 6MWT advantage vs external control ([9]; year four, p=0.0005): 162 meter
- 6MWT advantage vs external control ([9]; year three, N=12 vs N=13, p=0.005): 148 meter
- boys who lost ambulation ([10]; over a three year time period, external control (any exon skipping) 18/50): 2/12
- boys who lost ambulation ([10]; over the four year time period, external control 10/13): 2/12
- Kaplan-Meier estimate of loss of ambulation ([10]; year four, external control 85%, p 0.011): 17%
- Kaplan-Meier estimated probability for loss of ambulation ([10]; year three, external controls 46%): 17%
- NSAA: greater decline for the untreated boys [11]: 2.4 point
- patients with ability to rise without external support [12]: 55%
- FVC % predicted decrease [13]: ~2.5 % per year
- effect on the immune response [14]: no adverse effect on the immune response
- induction of exon 51 skipping in vitro [15]: potent inducer of exon 51 skipping
- exon 51 skipping in vivo [16]: confirmed in vivo

Compound: O=C1CN(/N=C/c2ccc(-c3ccc([N+](=O)[O-])cc3)o2)C(O)=N1 [dantrolene]
- antisense-mediated exon skipping [17]: enhance antisense-mediated exon skipping
- antisense-mediated exon skipping [18]: enhance antisense-mediated exon skipping
